For data set [1] the following is noted: log P=[solute]octanol/[solute]water; cited from earlier work.
A short description of data set [2]: solvent screen: PDO mixture with single solvents, distribution between solvent and aqueous phase. It counts as physicochemical. To be noted: 30° C.; for Distribution Coefficient Glucose / Distribution Coefficient Glycerol / Distribution Coefficient PDO: conc. in solvent phase / conc. in aqueous phase, aqueous solution 46% w/v PDO, 3.5% glycerol, […] glucose; for Selectivity PDO/Glycerol: distribution coefficient of PDO divided by that of glycerol. The procedure:
10 g of an aqueous solution containing 46% w/v PDO, 3.5% glycerol and 2.9% glucose was heated to 30° C. and the required solvent added in very small quantities until a cloudiness just began to develop. Additional solvent (about 1 g) was added and thoroughly mixed. The mixture was allowed to settle for 10 minutes and then centrifuged to achieve complete phase separation. The two phases (solvent and aqueous) were analyzed.

For the compound `OCCCCO` [1,4 butanediol], the “hydrophobic parameter log P” value in data set [1] is listed as −1.384. `CCCOC(C)=O` [propyl acetate]: the “hydrophobic parameter log P” value in data set [1] was 1.2. For the compound `CCCCCCCCCC` [decane], the “hydrophobic parameter log P” value in data set [1] is on record as 5.98. Take `CCCCCCCO` [heptanol]: the “hydrophobic parameter log P” value in data set [1] is reported as 2.4.

On to `CCCCCCCC/C=C\CCCCCCCCO` [Oleyl Alcohol], for which, in data set [2], the “Distribution Coefficient Glucose” value was determined as 0.001, the “Distribution Coefficient Glycerol” value came to 0.024, the “Distribution Coefficient PDO” value was 0.038 and the “Selectivity PDO/Glycerol” value was 1.60. Regarding `CCOC(C)=O` [ethyl acetate], the “hydrophobic parameter log P” value in data set [1] was 0.68. Turning to `CCCCCCCCCCCCO` [dodecanol], the “hydrophobic parameter log P” value in data set [1] was 5.0. For the compound `CCCCO` [Butan-1-ol], in data set [2], the “phase formation on adding solvent to the aqueous PDO solution” value is given as “Only one liquid phase formed”. Turning to `CC(=O)CC(C)C` [4-Methyl Pentan-2-one], in data set [2], the “Distribution Coefficient Glucose” value is 0.001, the “Distribution Coefficient Glycerol” value was found to be 0.008, the “Distribution Coefficient PDO” value is given as 0.033 and the “Selectivity PDO/Glycerol” value is listed as 4.03. Consider `CC(=O)OC(C)C` [isopropyl acetate], for which, in data set [2], the “Distribution Coefficient Glucose” value was 0.001, the “Distribution Coefficient Glycerol” value is given as 0.005, the “Distribution Coefficient PDO” value is listed as 0.024 and the “Selectivity PDO/Glycerol” value was 5.17. As to `CCCCCCCC` [octane], the “hydrophobic parameter log P” value in data set [1] was 4.5. As to `OCC(O)CO` [glycerol], the “hydrophobic parameter log P” value in data set [1] is listed as −2.08. With `CC(O)CO` (stereo not shown) [1,2 PDO], the “hydrophobic parameter log P” value in data set [1] is −1.003. With `CCCCCO` [Pentan-1-ol], in data set [2], the “Distribution Coefficient Glucose” value was found to be 0.256, the “Distribution Coefficient Glycerol” value is reported as 0.417, the “Distribution Coefficient PDO” value was 0.609 and the “Selectivity PDO/Glycerol” value amounted to 1.46. With `CCCCCCC` [heptane], the “hydrophobic parameter log P” value in data set [1] is listed as 4.0. Regarding `CCCCCCCC/C=C\CCCCCCCC(=O)O` [Oleic acid], in data set [2], the “Distribution Coefficient Glucose” value turned out to be 0.241, the “Distribution Coefficient Glycerol” value is 0.002, the “Distribution Coefficient PDO” value came out at 0.009 and the “Selectivity PDO/Glycerol” value is listed as 5.23.

The values above are taken from patent publication US7572376B2, “Process for producing 1,3-propanediol” (Tate & Lyle Ingredients Americas, Inc., priority 2003, dated 2009).
